Data published in paper PMC5391016 (PLoS ONE, 2017).

System: T1, Epac1-camps-PDE4A1
T1 construct: gene RAPGEF3
Settings: read-out: pEC50 5.56 ± 0.08 (converted); 10 mM Tris, 10 mM MgCl2; apparent affinity; PDE catalytically impaired

Nc1ncnc2c1ncn2[C@@H]1O[C@@H]2COP(=O)(O)O[C@H]2[C@H]1O [cAMP]
EC50: 2.7 µM
